Results as given in the CheMixHub viscosity set.
± gives the uncertainty stated by the source.

Assay: xn = mol fraction of the nth substance listed

CCS + CCO
298.15 K, 101 kPa
Settings	viscosity [mPa·s]
x1 = 0.026	1.048 ± 0.008
x1 = 0.072	0.9731 ± 0.0074
x1 = 0.0942	0.9305 ± 0.0071
x1 = 0.1067	0.8559 ± 0.0065
x1 = 0.1258	0.8385 ± 0.0064
x1 = 0.2634	0.6525 ± 0.0051
x1 = 0.2941	0.6119 ± 0.0048
x1 = 0.3753	0.5821 ± 0.0047
x1 = 0.6123	0.4083 ± 0.0035

CCCCCCO + O
viscosity [mPa·s], 101 kPa
Settings	298.15 K	308.15 K	318.15 K
x2 = 0.0013	–	–	2.573 ± 0.023
x2 = 0.0042	4.567 ± 0.04	3.388 ± 0.03	–
x2 = 0.0554	–	–	2.513 ± 0.022
x2 = 0.0593	4.427 ± 0.038	3.295 ± 0.029	–
x2 = 0.1019	–	–	2.475 ± 0.022
x2 = 0.1079	4.355 ± 0.037	3.237 ± 0.028	–
x2 = 0.1483	4.324 ± 0.036	3.209 ± 0.027	2.447 ± 0.021
x2 = 0.1875	–	–	2.432 ± 0.021
x2 = 0.1933	4.314 ± 0.036	3.193 ± 0.027	–
x2 = 0.2248	–	–	2.425 ± 0.02
x2 = 0.2367	4.322 ± 0.035	3.192 ± 0.026	–
x2 = 0.2673	4.341 ± 0.035	3.198 ± 0.026	2.427 ± 0.02
x2 = 0.2981	4.369 ± 0.035	3.213 ± 0.026	–
x2 = 0.3116	–	–	2.439 ± 0.02

O=C1CCCCC1 + CCCCO
101 kPa
Settings	viscosity [mPa·s]
298.15 K, x1 = 0.0997	2.13 ± 0.03
298.15 K, x1 = 0.2002	1.87 ± 0.02
298.15 K, x1 = 0.3022	1.73 ± 0.02
298.15 K, x1 = 0.3878	1.66 ± 0.02
298.15 K, x1 = 0.5036	1.63 ± 0.02
298.15 K, x1 = 0.6016	1.64 ± 0.02
298.15 K, x1 = 0.6966	1.67 ± 0.02
298.15 K, x1 = 0.7992	1.74 ± 0.02
298.15 K, x1 = 0.8984	1.82 ± 0.02
303.15 K, x1 = 0.1001	1.855 ± 0.014
303.15 K, x1 = 0.2591	1.662 ± 0.013
303.15 K, x1 = 0.4202	1.556 ± 0.012
303.15 K, x1 = 0.5804	1.517 ± 0.013
303.15 K, x1 = 0.7265	1.534 ± 0.013
303.15 K, x1 = 0.8935	1.622 ± 0.014

O=C1CCCCC1 + CCCCCCCCCCCC
viscosity [mPa·s], 101.33 kPa
Settings	x1 = 0.1085	x1 = 0.1979	x1 = 0.3049	x1 = 0.4052	x1 = 0.5049	x1 = 0.6012	x1 = 0.7012	x1 = 0.8014	x1 = 0.9008
298.15 K	1.348 ± 0.009	1.352 ± 0.009	1.368 ± 0.009	1.393 ± 0.009	1.42 ± 0.01	1.474 ± 0.01	1.533 ± 0.01	1.614 ± 0.011	1.75 ± 0.013
303.15 K	1.237 ± 0.008	1.238 ± 0.008	1.252 ± 0.009	1.272 ± 0.009	1.302 ± 0.009	1.344 ± 0.009	1.398 ± 0.009	1.469 ± 0.01	1.623 ± 0.011
308.15 K	1.135 ± 0.008	1.139 ± 0.008	1.151 ± 0.008	1.171 ± 0.008	1.199 ± 0.008	1.232 ± 0.008	1.281 ± 0.009	1.349 ± 0.009	1.483 ± 0.01

O=C1CCCCC1 + Cc1ccccc1
viscosity [mPa·s]
Settings	298.15 K	303.15 K	308.15 K
101 kPa, x1 = 0.1059	0.615 ± 0.085	–	–
101 kPa, x1 = 0.2177	0.682 ± 0.092	–	–
101 kPa, x1 = 0.3103	0.74 ± 0.099	–	–
101 kPa, x1 = 0.4166	0.829 ± 0.11	–	–
101 kPa, x1 = 0.5047	0.884 ± 0.12	–	–
101 kPa, x1 = 0.6049	0.971 ± 0.12	–	–
101 kPa, x1 = 0.7171	1.218 ± 0.15	–	–
101 kPa, x1 = 0.7943	1.333 ± 0.16	–	–
101 kPa, x1 = 0.9041	1.574 ± 0.19	–	–
101 kPa, x2 = 0.1021	–	1.396 ± 0.016	–
101 kPa, x2 = 0.202	–	1.218 ± 0.014	–
101 kPa, x2 = 0.3024	–	1.068 ± 0.013	–
101 kPa, x2 = 0.4051	–	0.9428 ± 0.011	–
101 kPa, x2 = 0.4964	–	0.8546 ± 0.01	–
101 kPa, x2 = 0.6017	–	0.753 ± 0.009	–
101 kPa, x2 = 0.6963	–	0.6911 ± 0.0083	–
101 kPa, x2 = 0.8022	–	0.6292 ± 0.0076	–
101.33 kPa, x1 = 0.1032	0.61 ± 0.004	0.573 ± 0.004	0.543 ± 0.004
101.33 kPa, x1 = 0.1997	0.668 ± 0.005	0.625 ± 0.004	0.59 ± 0.004
101.33 kPa, x1 = 0.3024	0.738 ± 0.005	0.689 ± 0.005	0.648 ± 0.004
101.33 kPa, x1 = 0.4055	0.824 ± 0.005	0.767 ± 0.005	0.721 ± 0.005
101.33 kPa, x1 = 0.504	0.922 ± 0.006	0.854 ± 0.006	0.799 ± 0.005
101.33 kPa, x1 = 0.602	1.043 ± 0.007	0.972 ± 0.006	0.903 ± 0.006
101.33 kPa, x1 = 0.7012	1.194 ± 0.007	1.103 ± 0.007	1.02 ± 0.007
101.33 kPa, x1 = 0.7999	1.391 ± 0.009	1.273 ± 0.008	1.183 ± 0.007
101.33 kPa, x1 = 0.9027	1.654 ± 0.01	1.505 ± 0.009	1.382 ± 0.009

O=C1CCCCC1 + CCCCCCCCCC
viscosity [mPa·s], 101.33 kPa
Settings	x1 = 0.1023	x1 = 0.2073	x1 = 0.3011	x1 = 0.4017	x1 = 0.5042	x1 = 0.6034	x1 = 0.703	x1 = 0.8	x1 = 0.9018
298.15 K	0.87 ± 0.011	0.902 ± 0.012	0.937 ± 0.012	0.991 ± 0.013	1.063 ± 0.013	1.143 ± 0.014	1.256 ± 0.016	1.439 ± 0.018	1.625 ± 0.021
303.15 K	0.806 ± 0.011	0.836 ± 0.011	0.868 ± 0.011	0.916 ± 0.012	0.984 ± 0.013	1.053 ± 0.013	1.152 ± 0.014	1.316 ± 0.016	1.48 ± 0.018
308.15 K	0.752 ± 0.01	0.779 ± 0.01	0.812 ± 0.011	0.851 ± 0.011	0.909 ± 0.012	0.973 ± 0.012	1.064 ± 0.013	1.212 ± 0.015	1.357 ± 0.016

C=C(C)[C@@H]1CC=C(C)CC1 + COC(C)(C)C
298.15 K, 101.33 kPa
Settings	viscosity [mPa·s]
x2 = 0.0694	0.807 ± 0.007
x2 = 0.1591	0.755 ± 0.007
x2 = 0.257	0.7 ± 0.006
x2 = 0.3599	0.641 ± 0.006
x2 = 0.491	0.572 ± 0.006
x2 = 0.6599	0.486 ± 0.005
x2 = 0.7344	0.449 ± 0.005
x2 = 0.8017	0.418 ± 0.005
x2 = 0.8714	0.386 ± 0.005
x2 = 0.9373	0.356 ± 0.005
x2 = 0.9672	0.344 ± 0.005

O=C1CCCCC1 + CCCCCCC
viscosity [mPa·s]
Settings	298.15 K	303.15 K	308.15 K
101 kPa, x1 = 0.1125	0.437 ± 0.008	–	–
101 kPa, x1 = 0.2097	0.484 ± 0.009	–	–
101 kPa, x1 = 0.3055	0.539 ± 0.01	–	–
101 kPa, x1 = 0.4144	0.616 ± 0.011	–	–
101 kPa, x1 = 0.5033	0.702 ± 0.012	–	–
101 kPa, x1 = 0.5928	0.803 ± 0.014	–	–
101 kPa, x1 = 0.7027	0.97 ± 0.017	–	–
101 kPa, x1 = 0.8091	1.184 ± 0.02	–	–
101 kPa, x1 = 0.8686	1.34 ± 0.022	–	–
101.33 kPa, x1 = 0.1046	0.427 ± 0.003	0.403 ± 0.003	0.384 ± 0.003
101.33 kPa, x1 = 0.2024	0.472 ± 0.004	0.445 ± 0.004	0.421 ± 0.003
101.33 kPa, x1 = 0.3035	0.529 ± 0.004	0.497 ± 0.004	0.47 ± 0.004
101.33 kPa, x1 = 0.4016	0.606 ± 0.005	0.564 ± 0.004	0.53 ± 0.004
101.33 kPa, x1 = 0.5025	0.69 ± 0.005	0.644 ± 0.005	0.605 ± 0.004
101.33 kPa, x1 = 0.5993	0.805 ± 0.006	0.75 ± 0.005	0.701 ± 0.005
101.33 kPa, x1 = 0.7026	0.96 ± 0.007	0.893 ± 0.006	0.828 ± 0.006
101.33 kPa, x1 = 0.8009	1.178 ± 0.008	1.085 ± 0.007	1.004 ± 0.007
101.33 kPa, x1 = 0.9009	1.474 ± 0.013	1.349 ± 0.009	1.235 ± 0.008

CCCCCC(=O)O + ClC(Cl)(Cl)Cl
298.15 K, 101 kPa
Settings	viscosity [mPa·s]
x1 = 0.07	0.966 ± 0.025
x1 = 0.13	1.033 ± 0.027
x1 = 0.19	1.108 ± 0.029
x1 = 0.25	1.188 ± 0.031
x1 = 0.47	1.548 ± 0.04
x1 = 0.57	1.743 ± 0.046
x1 = 0.67	1.927 ± 0.05
x1 = 0.84	2.343 ± 0.061

CCOCC + Nc1ccccc1
298.15 K, 101 kPa
Settings	viscosity [mPa·s]
x1 = 0.3027	1.359 ± 0.063
x1 = 0.5488	0.669 ± 0.067
x1 = 0.7838	0.38 ± 0.071

CCOCC + ClC(Cl)Cl
101.33 kPa
Settings	viscosity [mPa·s]
293.15 K, x2 = 0.1704	0.295 ± 0.008
293.15 K, x2 = 0.2909	0.354 ± 0.009
293.15 K, x2 = 0.4425	0.416 ± 0.011
293.15 K, x2 = 0.562	0.466 ± 0.012
293.15 K, x2 = 0.6848	0.507 ± 0.013
293.15 K, x2 = 0.8038	0.536 ± 0.014
293.15 K, x2 = 0.8989	0.555 ± 0.014
298.15 K, x1 = 0.274	0.472 ± 0.0033
298.15 K, x1 = 0.528	0.397 ± 0.0028
298.15 K, x1 = 0.672	0.34 ± 0.0024
298.15 K, x1 = 0.863	0.268 ± 0.0019
298.15 K, x2 = 0.1567	0.282 ± 0.007
298.15 K, x2 = 0.3094	0.343 ± 0.009
298.15 K, x2 = 0.4329	0.395 ± 0.01
298.15 K, x2 = 0.5582	0.445 ± 0.012
298.15 K, x2 = 0.6897	0.489 ± 0.013
298.15 K, x2 = 0.8073	0.519 ± 0.013
298.15 K, x2 = 0.8947	0.536 ± 0.014
